Test results as given in ChEMBL document CHEMBL1143211, “Inhibitors of proteases and amide hydrolases that employ an alpha-ketoheterocycle as a key enabling functionality” (Bioorg Med Chem, 2008).

Experiments:
[1] = Inhibition of human rhinovirus 14 3C protease; design: species or system rhinovirus B14
[2] = system: rhinovirus B14; experiment: Antiviral activity against human rhinovirus 14; assay type: functional, organism-based; settings: Rhinovirus B
[3] = Oral bioavailability in rat; assay type: ADME, organism-based; settings: in vivo
[4] = Inhibition of bovine trypsin; design: species or system Bos taurus
[5] = Selectivity for human alpha-thrombin over bovine trypsin
[6] = molecular target: T1, Cathepsin K (Homo sapiens, UniProt P43235); experiment: Inhibition of human recombinant cathepsin K
T1 sequence (P43235 whole entry): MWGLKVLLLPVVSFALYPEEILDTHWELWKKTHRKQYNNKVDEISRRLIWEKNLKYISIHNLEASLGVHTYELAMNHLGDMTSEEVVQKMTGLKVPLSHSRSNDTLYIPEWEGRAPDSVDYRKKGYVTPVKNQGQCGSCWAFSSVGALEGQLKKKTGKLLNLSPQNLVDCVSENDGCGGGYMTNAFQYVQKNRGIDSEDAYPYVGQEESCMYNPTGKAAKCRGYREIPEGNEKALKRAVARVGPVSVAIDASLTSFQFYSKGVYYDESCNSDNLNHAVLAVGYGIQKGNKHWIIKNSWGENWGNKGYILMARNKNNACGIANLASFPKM

[7] = molecular target: Cathepsin B (Homo sapiens, UniProt P07858); experiment: Inhibition of human liver cathepsin B
[8] = molecular target: Procathepsin L (Homo sapiens, UniProt P07711); experiment: Inhibition of human recombinant cathepsin L
[9] = molecular target: Cathepsin S (Homo sapiens, UniProt P25774); experiment: Inhibition of human recombinant cathepsin S
[10] = Selectivity for rat FAAH over triacylglycerol hydrolase
[11] = molecular target: T2, Fatty-acid amide hydrolase 1 (Rattus norvegicus, UniProt P97612)
T2 sequence (P97612 whole entry): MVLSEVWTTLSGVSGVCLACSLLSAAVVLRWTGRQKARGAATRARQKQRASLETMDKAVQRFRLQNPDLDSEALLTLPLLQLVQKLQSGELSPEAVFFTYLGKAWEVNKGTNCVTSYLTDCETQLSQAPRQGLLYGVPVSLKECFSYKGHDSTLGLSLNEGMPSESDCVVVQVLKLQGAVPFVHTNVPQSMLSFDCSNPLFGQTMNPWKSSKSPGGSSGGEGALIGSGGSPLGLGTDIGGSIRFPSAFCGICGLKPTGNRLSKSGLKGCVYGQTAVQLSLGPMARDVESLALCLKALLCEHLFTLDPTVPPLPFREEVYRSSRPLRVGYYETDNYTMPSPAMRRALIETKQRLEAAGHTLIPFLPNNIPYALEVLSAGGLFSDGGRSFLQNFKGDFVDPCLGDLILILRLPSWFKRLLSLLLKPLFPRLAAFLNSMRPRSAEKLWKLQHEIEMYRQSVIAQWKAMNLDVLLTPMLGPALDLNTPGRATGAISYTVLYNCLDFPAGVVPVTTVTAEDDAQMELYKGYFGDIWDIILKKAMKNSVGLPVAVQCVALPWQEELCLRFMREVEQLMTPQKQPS

[12] = Inhibition of HDAC
[13] = Inhibition of human beta-tryptase
[14] = molecular target: Prothrombin (Homo sapiens, UniProt P00734); experiment: Inhibition of human alpha-thrombin
[15] = molecular target: Prolyl endopeptidase (Sus scrofa, UniProt P23687)
Sequence of Prolyl endopeptidase (P23687 whole entry): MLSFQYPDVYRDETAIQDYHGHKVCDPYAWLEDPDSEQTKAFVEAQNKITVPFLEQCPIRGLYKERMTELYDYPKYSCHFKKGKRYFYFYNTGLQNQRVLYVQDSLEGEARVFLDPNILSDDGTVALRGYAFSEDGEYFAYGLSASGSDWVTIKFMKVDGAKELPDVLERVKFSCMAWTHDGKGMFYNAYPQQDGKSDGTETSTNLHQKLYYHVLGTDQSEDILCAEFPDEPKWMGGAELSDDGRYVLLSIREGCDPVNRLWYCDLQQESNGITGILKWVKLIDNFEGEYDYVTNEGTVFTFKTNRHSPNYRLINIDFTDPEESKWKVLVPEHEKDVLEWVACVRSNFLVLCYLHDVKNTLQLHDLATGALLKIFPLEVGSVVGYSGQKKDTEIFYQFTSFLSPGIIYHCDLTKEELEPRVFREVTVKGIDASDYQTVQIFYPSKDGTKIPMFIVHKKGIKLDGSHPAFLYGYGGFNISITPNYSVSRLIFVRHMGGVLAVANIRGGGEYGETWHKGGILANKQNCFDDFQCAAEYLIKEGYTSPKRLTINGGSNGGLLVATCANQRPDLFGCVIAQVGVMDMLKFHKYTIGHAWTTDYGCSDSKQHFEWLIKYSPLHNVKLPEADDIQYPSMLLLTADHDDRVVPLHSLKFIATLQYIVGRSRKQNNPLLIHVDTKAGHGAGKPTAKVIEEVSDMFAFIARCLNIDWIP

Sequence of Cathepsin S (P25774 whole entry): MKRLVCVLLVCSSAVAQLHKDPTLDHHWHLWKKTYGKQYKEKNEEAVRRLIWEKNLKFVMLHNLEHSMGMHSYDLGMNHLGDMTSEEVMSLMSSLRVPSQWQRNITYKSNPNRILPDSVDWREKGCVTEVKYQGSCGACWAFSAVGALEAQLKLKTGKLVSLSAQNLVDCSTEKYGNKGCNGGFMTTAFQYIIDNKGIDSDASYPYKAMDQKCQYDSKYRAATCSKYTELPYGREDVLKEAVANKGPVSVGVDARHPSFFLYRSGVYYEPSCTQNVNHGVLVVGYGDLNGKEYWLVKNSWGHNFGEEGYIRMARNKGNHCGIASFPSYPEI
Sequence of Procathepsin L (P07711 whole entry): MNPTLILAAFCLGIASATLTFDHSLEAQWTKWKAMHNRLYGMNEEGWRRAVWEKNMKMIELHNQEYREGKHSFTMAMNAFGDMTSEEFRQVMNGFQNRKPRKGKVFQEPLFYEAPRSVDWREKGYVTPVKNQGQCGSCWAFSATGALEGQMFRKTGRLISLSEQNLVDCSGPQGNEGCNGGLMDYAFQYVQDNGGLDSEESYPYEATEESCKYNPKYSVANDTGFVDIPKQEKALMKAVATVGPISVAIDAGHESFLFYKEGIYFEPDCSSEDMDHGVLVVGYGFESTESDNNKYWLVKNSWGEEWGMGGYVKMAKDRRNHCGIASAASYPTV

**Q.** With CC(C)C[C@H](NC(=O)OCc1ccccc1)C(=O)N[C@@H](Cc1ccccc1)C(=O)N[C@@H](C[C@H]1CCNC1=O)C(=O)c1nc2ccccc2s1 as the compound, how does the Ki [1] read?
**A.** The Ki was 65 nM.

**Q.** What about the EC50 [2] of the same compound?
**A.** Its EC50 is 3200 nM.

**Q.** Which bioavailability [3] does the source give for NCCCC[C@H](NC(=O)[C@@H]1CCCN1C(=O)[C@@H](CC1CCCCC1)NCC(=O)O)C(=O)c1ncco1 here?
**A.** The bioavailability was < 5%.

**Q.** What does the source list for CN[C@H](Cc1ccccc1)C(=O)N1CCC[C@H]1C(=O)N[C@@H](CCCNC(=N)N)C(=O)c1cc2ccccc2s1?
**A.** Ki [4]: 1300 nM; Ratio Ki [5]: 12000

**Q.** With CC(C)C[C@H](NC(=O)C1CCNCC1)C(=O)N[C@@H](CCc1ccccc1)C(=O)c1nc2ccccc2o1 as the compound, how does the Ki [6] read?
**A.** Its Ki is 9.5 nM.

**Q.** And the Ki [7]?
**A.** The Ki was 2100 nM.

**Q.** What about the Ki [8] of the same compound?
**A.** Its Ki is 30 nM.

**Q.** Which Ki [9] does the source give for CCC[C@H](NC(=O)[C@@H](CC(=O)N1CCOCC1)CC(C)(C)C)C(=O)c1nc2ccccc2o1 here?
**A.** Its Ki is < 100 nM.

**Q.** What does the source list for CCCC[C@H](NC(=O)C(=O)[C@H](CC(C)C)NC(=O)OCc1ccccc1)C(=O)c1nnc(-c2ccco2)o1?
**A.** Ki [6]: < 0.25 nM; Ki [7]: 2 nM; Ki [8]: 1 nM; Ki [9]: < 0.25 nM

**Q.** For CC(C)C[C@H](NC(=O)OCc1ccccc1)C(=O)N[C@@H](Cc1ccccc1)C(=O)N[C@@H](C[C@H]1CCNC1=O)C(=O)c1cc2ccccc2s1, which Ki [1] is on record?
**A.** The Ki was 4700 nM.

**Q.** What about the EC50 [2] of the same compound?
**A.** The EC50 was > 10000 nM.

**Q.** With CCCCCCCCCCCC(=O)c1nc2ncccc2o1 as the compound, how does the Selectivity ratio [10] read?
**A.** Its Selectivity ratio is 100.

**Q.** And the Ki [11]?
**A.** Its Ki is 0.57 nM.

**Q.** With O=C(CCCCCCOc1ccc(-c2ccccc2)cc1)c1nc2ccccc2o1 as the compound, how does the IC50 [12] read?
**A.** The IC50 was > 50000 nM.

**Q.** With CC(=O)N1C[C@H](O)C[C@H]1C(=O)N[C@@H](CCCNC(=N)N)C(=O)c1nccs1 as the compound, how does the Ki [13] read?
**A.** Its Ki is 180 nM.

**Q.** Which IC50 [12] does the source give for Cn1ccnc1C(=O)CCCCCCOc1ccc(-c2ccccc2)cc1 here?
**A.** The IC50 was > 50000 nM.

**Q.** For O=C(CCCCCCCCc1ccccc1)c1nnc(-c2ccccn2)o1, which Selectivity ratio [10] is on record?
**A.** Its Selectivity ratio is 600.

**Q.** For CCCC[C@H](NC(=O)CCc1ccccc1)C(=O)c1nnc(-c2ccco2)o1, which Ki [6] is on record?
**A.** The Ki was 9600 nM.

**Q.** And the Ki [7]?
**A.** Its Ki is 25000 nM.

**Q.** And the Ki [8]?
**A.** The Ki was 100000 nM.

**Q.** What about the Ki [9] of the same compound?
**A.** The Ki was 26000 nM.

**Q.** Which Ki [13] does the source give for CC(=O)N1C[C@H](O)C[C@@H]1C(=O)N[C@@H](CCCNC(=N)N)C(=O)c1nc2ccccc2s1 here?
**A.** The Ki was 380 nM.

**Q.** With CC(=O)N1CCC[C@@H]1C(=O)N[C@@H](CCCN=C(N)N)C(=O)c1nc2ccccc2s1 as the compound, how does the Ki [13] read?
**A.** The Ki was 14000 nM.

**Q.** With O=C(CCCCCCOc1ccc(-c2ccccc2)cc1)c1nccs1 as the compound, how does the IC50 [12] read?
**A.** Its IC50 is > 50000 nM.

**Q.** For O=C(CCCCCCOc1ccc(-c2ccccc2)cc1)c1nnn[nH]1, which IC50 [12] is on record?
**A.** The IC50 was 1000 nM.

**Q.** For O=C(CCCCCCOc1cccc(-c2ccccc2)c1)c1ncco1, which IC50 [12] is on record?
**A.** Its IC50 is 620 nM.

**Q.** For N=C(N)NCCC[C@H](NC(=O)[C@@H]1CCN2CC[C@@](N)(Cc3ccccc3)C(=O)N12)C(=O)c1nc2ccccc2s1, which Ki [14] is on record?
**A.** Its Ki is 0.65 nM.

**Q.** And the bioavailability [3]?
**A.** Its bioavailability is 25%.

**Q.** Which Ki [4] does the source give for CN[C@H](Cc1ccccc1)C(=O)N1CCC[C@H]1C(=O)N[C@@H](CCCN=C(N)N)C(=O)c1nc2ccccc2o1 here?
**A.** Its Ki is 13 nM.

**Q.** What about the Ratio Ki [5] of the same compound?
**A.** The Ratio Ki was 30.

**Q.** What does the source list for CN[C@H](Cc1ccccc1)C(=O)N1CCC[C@H]1C(=O)N[C@@H](CCCN=C(N)N)C(=O)c1nccs1?
**A.** Ki [4]: 1.2 nM; Ratio Ki [5]: 10

**Q.** For O=C(c1nccs1)[C@@H]1CCCN1C(=O)[C@@H]1CCCN1CCCc1ccccc1, which IC50 [15] is on record?
**A.** Its IC50 is 5 nM.

**Q.** For CNC(=O)C(=O)CCCCCCOc1ccc(-c2ccccc2)cc1, which IC50 [12] is on record?
**A.** Its IC50 is 110 nM.

**Q.** For Cc1ccnc(-c2cnc(C(=O)CCCCCCc3ccccc3)o2)c1, which Selectivity ratio [10] is on record?
**A.** The Selectivity ratio was 2000.

**Q.** What about the Ki [11] of the same compound?
**A.** Its Ki is 0.6 nM.

**Q.** With O=C(c1cscn1)[C@@H]1CCCN1C(=O)[C@@H]1CCCN1CCCc1ccccc1 as the compound, how does the IC50 [15] read?
**A.** Its IC50 is 13 nM.

**Q.** With CC(=O)NCC(=O)N[C@@H](CCCN=C(N)N)C(=O)c1nc2ccccc2s1 as the compound, how does the Ki [13] read?
**A.** The Ki was 470 nM.

**Q.** For CC(C)C[C@H](NC(=O)C1CCNCC1)C(=O)N[C@@H](CCc1ccccc1)C(=O)c1nc2cc(S(N)(=O)=O)ccc2o1, which Ki [6] is on record?
**A.** Its Ki is 40 nM.

**Q.** And the Ki [7]?
**A.** Its Ki is 90 nM.

**Q.** And the Ki [8]?
**A.** The Ki was 220 nM.

**Q.** What about the Ki [9] of the same compound?
**A.** Its Ki is 40 nM.

**Q.** With O=C(c1nc2ccccc2s1)[C@@H]1CCCN1C(=O)[C@@H]1CCCN1CCCc1ccccc1 as the compound, how does the IC50 [15] read?
**A.** The IC50 was 4 nM.

**Q.** With O=C(c1nc2ccccc2o1)[C@@H]1CCCN1C(=O)[C@@H]1CCCN1CCCc1ccccc1 as the compound, how does the IC50 [15] read?
**A.** The IC50 was 5.6 nM.

**Q.** Which IC50 [15] does the source give for CC(NC(=O)[C@H](CC(=O)N(C)C)NC(=O)[C@@H](NC(=O)CC(C)(C)C)C(C)(C)C)C(=O)c1nc2ccccc2o1 (stereo partly drawn) here?
**A.** Its IC50 is 80 nM.

**Q.** With O=C(CCCCCCOc1ccc(-c2ccccc2)cc1)c1ccccn1 as the compound, how does the IC50 [12] read?
**A.** Its IC50 is > 50000 nM.

**Q.** What does the source list for CS(=O)(=O)N1CCC[C@H]1C(=O)N[C@@H](CCCNC(=N)N)C(=O)c1nc2ccccc2s1?
**A.** Ki [4]: 38 nM; Ki [13]: 33 nM

**Q.** With CCCC[C@H](NC(=O)[C@H](CS(=O)(=O)Cc1ccccc1)NC(=O)N1CCOCC1)C(=O)c1nnc(-c2ccccc2)o1 as the compound, how does the Ki [9] read?
**A.** Its Ki is < 100 nM.
